The results in this text go back to the OligoGym collection.

Oligonucleotides are written 5' to 3', each unit as a sugar letter and its base; * is a phosphorothioate linkage, no mark a phosphodiester; rarer units and linkages stand in square brackets, end groups in braces. Plain capitals give the bases only. Oligonucleotides are given in HELM: sugar(base)linkage, 5' to 3'; d 2'-deoxyribose, r ribose, m 2'-O-methylribose, p phosphate. ss, as = sense and antisense strand; d = 2'-deoxy (DNA); r = 2'-OH (RNA)
Also: test concentration or dose not given here.

The first series deals with UBE2I. The series is described as follows: reporter assay of Huesken 2005. As to conditions: siRNA.
With “sense rCrCrArGrGrArArArGrArArArGrGrGrArCrUrCdTdT / antisense rGrArGrUrCrCrCrUrUrUrCrUrUrUrCrCrUrGrGdAdA”, the normalised inhibition (eCFP-eYFP dual reporter) came to 54.9%.

As to “sense rArGrArArArGrGrGrArCrUrCrCrGrUrGrGrGrAdTdT / antisense rUrCrCrCrArCrGrGrArGrUrCrCrCrUrUrUrCrUdTdT”, the normalised inhibition (eCFP-eYFP dual reporter) turned out to be 63.1%.

Substance “sense rCrCrCrGrArUrGrGrCrArCrGrArUrGrArArCrCdTdT / antisense rGrGrUrUrCrArUrCrGrUrGrCrCrArUrCrGrGrGdAdT” came in with a normalised inhibition (eCFP-eYFP dual reporter) of 55%.

The substance “sense rCrArGrArUrCrCrUrArUrUrArGrGrArArUrArCdTdT / antisense rGrUrArUrUrCrCrUrArArUrArGrGrArUrCrUrGdTdT” returned a normalised inhibition (eCFP-eYFP dual reporter) of 74.4%.

Consider “sense rArUrArCrArGrGrArArCrUrUrCrUrArArArUrGdTdT / antisense rCrArUrUrUrArGrArArGrUrUrCrCrUrGrUrArUdTdC”, for which the normalised inhibition (eCFP-eYFP dual reporter) was found to be 52.1%.

Turning to “sense rGrArGrGrCrUrUrGrUrUrUrArArArCrUrArCrGdTdT / antisense rCrGrUrArGrUrUrUrArArArCrArArGrCrCrUrCdCdT”, the normalised inhibition (eCFP-eYFP dual reporter) amounted to 73.2%.

The substance “sense rCrArGrUrGrUrGrCrCrUrGrUrCrCrArUrCrUrUdTdT / antisense rArArGrArUrGrGrArCrArGrGrCrArCrArCrUrGdTdC” showed a normalised inhibition (eCFP-eYFP dual reporter) of 80.1%.

“sense rArArArUrGrUrArArArUrUrCrGrArArCrCrArCdTdT / antisense rGrUrGrGrUrUrCrGrArArUrUrUrArCrArUrUrUdTdG” gave a normalised inhibition (eCFP-eYFP dual reporter) of 53.9%.

On to “sense rGrUrArArArUrUrCrGrArArCrCrArCrCrArUrUdTdT / antisense rArArUrGrGrUrGrGrUrUrCrGrArArUrUrUrArCdAdT”, for which the normalised inhibition (eCFP-eYFP dual reporter) amounted to 89.2%.

“sense rArGrArUrCrCrUrArUrUrArGrGrArArUrArCrAdTdT / antisense rUrGrUrArUrUrCrCrUrArArUrArGrGrArUrCrUdGdT” came in with a normalised inhibition (eCFP-eYFP dual reporter) of 90.4%.

Substance “sense rGrArArArGrGrGrArCrUrCrCrGrUrGrGrGrArAdTdT / antisense rUrUrCrCrCrArCrGrGrArGrUrCrCrCrUrUrUrCdTdT” yielded a normalised inhibition (eCFP-eYFP dual reporter) of 89.3%.

Turning to “sense rCrCrGrArUrGrGrCrArCrGrArUrGrArArCrCrUdTdT / antisense rArGrGrUrUrCrArUrCrGrUrGrCrCrArUrCrGrGdGdA”, the normalised inhibition (eCFP-eYFP dual reporter) came to 81.8%.

The substance “sense rUrGrUrUrUrArArArCrUrArCrGrGrArUrGrCrUdTdT / antisense rArGrCrArUrCrCrGrUrArGrUrUrUrArArArCrAdAdG” yielded a normalised inhibition (eCFP-eYFP dual reporter) of 68.1%.

In turn, “sense rCrGrArUrGrArArCrCrUrCrArUrGrArArCrUrGdTdT / antisense rCrArGrUrUrCrArUrGrArGrGrUrUrCrArUrCrGdTdG” gave a normalised inhibition (eCFP-eYFP dual reporter) of 78.2%.

On to “sense rArGrArUrGrArUrUrArUrCrCrArUrCrUrUrCrGdTdT / antisense rCrGrArArGrArUrGrGrArUrArArUrCrArUrCrUdTdT”, for which the normalised inhibition (eCFP-eYFP dual reporter) is 52.7%.

“sense rCrArArGrArCrCrCrArGrCrUrCrArArGrCrArGdTdT / antisense rCrUrGrCrUrUrGrArGrCrUrGrGrGrUrCrUrUrGdGdA” came in with a normalised inhibition (eCFP-eYFP dual reporter) of 75.8%.

With “sense rGrCrArCrGrArUrGrArArCrCrUrCrArUrGrArAdTdT / antisense rUrUrCrArUrGrArGrGrUrUrCrArUrCrGrUrGrCdCdA”, the normalised inhibition (eCFP-eYFP dual reporter) amounted to 84.4%.

“sense rArCrCrUrCrArUrGrArArCrUrGrGrGrArGrUrGdTdT / antisense rCrArCrUrCrCrCrArGrUrUrCrArUrGrArGrGrUdTdC” showed a normalised inhibition (eCFP-eYFP dual reporter) of 58.8%.

For the substance “sense rArGrCrUrCrArArGrCrArGrArGrGrCrCrUrArCdTdT / antisense rGrUrArGrGrCrCrUrCrUrGrCrUrUrGrArGrCrUdGdG”, the normalised inhibition (eCFP-eYFP dual reporter) stood at 89.5%.

With “sense rArCrCrCrArUrUrUrGrGrUrUrUrCrGrUrGrGrCdTdT / antisense rGrCrCrArCrGrArArArCrCrArArArUrGrGrGrUdGdG”, the normalised inhibition (eCFP-eYFP dual reporter) worked out at 56.9%.

In the case of “sense rUrUrCrGrArArCrCrArCrCrArUrUrArUrUrUrCdTdT / antisense rGrArArArUrArArUrGrGrUrGrGrUrUrCrGrArAdTdT”, the normalised inhibition (eCFP-eYFP dual reporter) was 59.1%.

Substance “sense rArArCrCrUrCrArUrGrArArCrUrGrGrGrArGrUdTdT / antisense rArCrUrCrCrCrArGrUrUrCrArUrGrArGrGrUrUdCdA” had a normalised inhibition (eCFP-eYFP dual reporter) of 34.5%.

Substance “sense rArCrCrArUrUrArUrUrUrCrArCrCrCrGrArArUdTdT / antisense rArUrUrCrGrGrGrUrGrArArArUrArArUrGrGrUdGdG” registered a normalised inhibition (eCFP-eYFP dual reporter) of 88.3%.

Consider “sense rArArCrCrArArArUrArUrCrCrArArGrArCrCrCdTdT / antisense rGrGrGrUrCrUrUrGrGrArUrArUrUrUrGrGrUrUdCdA”, for which the normalised inhibition (eCFP-eYFP dual reporter) turned out to be 48.9%.

Substance “sense rGrGrArGrGrCrUrUrGrUrUrUrArArArCrUrArCdTdT / antisense rGrUrArGrUrUrUrArArArCrArArGrCrCrUrCrCdTdT” gave a normalised inhibition (eCFP-eYFP dual reporter) of 82.5%.

For the substance “sense rGrCrCrUrArCrArCrGrArUrUrUrArCrUrGrCrCdTdT / antisense rGrGrCrArGrUrArArArUrCrGrUrGrUrArGrGrCdCdT”, the normalised inhibition (eCFP-eYFP dual reporter) came out at 67.8%.

“sense rArArUrGrUrGrUrArCrCrCrUrUrCrGrGrGrGrAdTdT / antisense rUrCrCrCrCrGrArArGrGrGrUrArCrArCrArUrUdCdG” displayed a normalised inhibition (eCFP-eYFP dual reporter) of 59.6%.

With “sense rUrGrGrGrArArGrGrArGrGrCrUrUrGrUrUrUrAdTdT / antisense rUrArArArCrArArGrCrCrUrCrCrUrUrCrCrCrAdCdG”, the normalised inhibition (eCFP-eYFP dual reporter) stood at 78%.

In turn, “sense rGrArGrGrArGrGrArCrArArGrGrArCrUrGrGrAdTdT / antisense rUrCrCrArGrUrCrCrUrUrGrUrCrCrUrCrCrUrCdTdA” showed a normalised inhibition (eCFP-eYFP dual reporter) of 70.5%.

“sense rUrCrCrCrGrArUrGrGrCrArCrGrArUrGrArArCdTdT / antisense rGrUrUrCrArUrCrGrUrGrCrCrArUrCrGrGrGrAdTdT” yielded a normalised inhibition (eCFP-eYFP dual reporter) of 48.8%.

As to “sense rUrUrArArArCrUrArCrGrGrArUrGrCrUrUrUrUdTdT / antisense rArArArArGrCrArUrCrCrGrUrArGrUrUrUrArAdAdC”, the normalised inhibition (eCFP-eYFP dual reporter) amounted to 50.2%.

Substance “sense rCrCrArGrCrCrArUrCrArCrArArUrCrArArArCdTdT / antisense rGrUrUrUrGrArUrUrGrUrGrArUrGrGrCrUrGrGdCdC” returned a normalised inhibition (eCFP-eYFP dual reporter) of 56%.

As for “sense rCrCrUrUrCrGrGrGrGrArCrArGrUrGrUrGrCrCdTdT / antisense rGrGrCrArCrArCrUrGrUrCrCrCrCrGrArArGrGdGdT”, the normalised inhibition (eCFP-eYFP dual reporter) turned out to be 51.1%.

With “sense rGrGrGrGrArCrArGrUrGrUrGrCrCrUrGrUrCrCdTdT / antisense rGrGrArCrArGrGrCrArCrArCrUrGrUrCrCrCrCdGdA”, the normalised inhibition (eCFP-eYFP dual reporter) turned out to be 47.8%.

For the substance “sense rUrArUrUrUrCrArCrCrCrGrArArUrGrUrGrUrAdTdT / antisense rUrArCrArCrArUrUrCrGrGrGrUrGrArArArUrAdAdT”, the normalised inhibition (eCFP-eYFP dual reporter) is 78.9%.

In turn, “sense rCrArCrCrCrArUrUrUrGrGrUrUrUrCrGrUrGrGdTdT / antisense rCrCrArCrGrArArArCrCrArArArUrGrGrGrUrGdGdT” returned a normalised inhibition (eCFP-eYFP dual reporter) of 85.4%.

The target in a further series is CDC34. The experiment in a line: reporter assay of Huesken 2005. To be noted: siRNA. (In general: In a reporter assay the amount or activity of a reporter protein is the signal.)
In turn, “RNA1{r(C)p.r(G)p.r(C)p.r(G)p.r(C)p.r(C)p.r(U)p.r(C)p.r(A)p.r(A)p.r(G)p.r(U)p.r(U)p.r(C)p.r(C)p.r(C)p.r(C)p.r(A)p.r(U)p.d(T)p.d(T)}|RNA2{r(A)p.r(U)p.r(G)p.r(G)p.r(G)p.r(G)p.r(A)p.r(A)p.r(C)p.r(U)p.r(U)p.r(G)p.r(A)p.r(G)p.r(G)p.r(C)p.r(G)p.r(C)p.r(G)p.d(C)p.d(C)}$$$RNA1{StrandType:ss}|RNA2{StrandType:as}$” displayed a normalised inhibition (eCFP-eYFP dual reporter) of 51.1%.

Consider “RNA1{r(A)p.r(C)p.r(G)p.r(U)p.r(C)p.r(A)p.r(G)p.r(G)p.r(A)p.r(C)p.r(C)p.r(A)p.r(U)p.r(U)p.r(C)p.r(U)p.r(C)p.r(C)p.r(U)p.d(T)p.d(T)}|RNA2{r(A)p.r(G)p.r(G)p.r(A)p.r(G)p.r(A)p.r(A)p.r(U)p.r(G)p.r(G)p.r(U)p.r(C)p.r(C)p.r(U)p.r(G)p.r(A)p.r(C)p.r(G)p.r(U)p.d(T)p.d(C)}$$$RNA1{StrandType:ss}|RNA2{StrandType:as}$”, for which the normalised inhibition (eCFP-eYFP dual reporter) turned out to be 72.2%.

Regarding “RNA1{r(A)p.r(C)p.r(C)p.r(U)p.r(C)p.r(U)p.r(U)p.r(C)p.r(U)p.r(A)p.r(C)p.r(G)p.r(A)p.r(C)p.r(G)p.r(A)p.r(C)p.r(U)p.r(A)p.d(T)p.d(T)}|RNA2{r(U)p.r(A)p.r(G)p.r(U)p.r(C)p.r(G)p.r(U)p.r(C)p.r(G)p.r(U)p.r(A)p.r(G)p.r(A)p.r(A)p.r(G)p.r(A)p.r(G)p.r(G)p.r(U)p.d(C)p.d(T)}$$$RNA1{StrandType:ss}|RNA2{StrandType:as}$”, the normalised inhibition (eCFP-eYFP dual reporter) came to 89.3%.

Regarding “RNA1{r(U)p.r(G)p.r(G)p.r(C)p.r(A)p.r(C)p.r(C)p.r(C)p.r(U)p.r(A)p.r(A)p.r(C)p.r(A)p.r(U)p.r(C)p.r(U)p.r(A)p.r(C)p.r(G)p.d(T)p.d(T)}|RNA2{r(C)p.r(G)p.r(U)p.r(A)p.r(G)p.r(A)p.r(U)p.r(G)p.r(U)p.r(U)p.r(A)p.r(G)p.r(G)p.r(G)p.r(U)p.r(G)p.r(C)p.r(C)p.r(A)p.d(C)p.d(A)}$$$RNA1{StrandType:ss}|RNA2{StrandType:as}$”, the normalised inhibition (eCFP-eYFP dual reporter) stood at 25.1%.

For “RNA1{r(A)p.r(G)p.r(G)p.r(A)p.r(A)p.r(G)p.r(A)p.r(G)p.r(C)p.r(C)p.r(G)p.r(G)p.r(U)p.r(C)p.r(G)p.r(A)p.r(G)p.r(G)p.r(G)p.d(T)p.d(T)}|RNA2{r(C)p.r(C)p.r(C)p.r(U)p.r(C)p.r(G)p.r(A)p.r(C)p.r(C)p.r(G)p.r(G)p.r(C)p.r(U)p.r(C)p.r(U)p.r(U)p.r(C)p.r(C)p.r(U)p.d(G)p.d(C)}$$$RNA1{StrandType:ss}|RNA2{StrandType:as}$”, the normalised inhibition (eCFP-eYFP dual reporter) was 44.3%.
